The results in this text go back to US8987309B2, “Compounds, pharmaceutical compositions and methods of use of 2-aryl pyridylazoles” (The Translational Genomics Research Institute, priority 2009, dated 2015).

The test system of data set [1] is BxPC3 DPC-4(+/+) and BxPC3 DPC-4(−/−) cells. In words: Cytotoxicity (96-h MTT) in isogenic BxPC3 cell lines. Format: cell-based, Human. As for the experimental part: Cell lines and Culture Conditions. Human pancreatic cancer cell lines MiaPaCa-2 (Yunis et al., 1977), Panc-1 (Lieber et al., 1975), and BxPC3 (Tan et al., 1986) were purchased from the American Type Culture Collection (Manassas, Va.) and cultured in a humidified incubator at 37° C., 5% CO2, in RPMI 1640 medium (CellGro, Manassas, Va.) supplemented with 10% heat-inactivated bovine calf serum, 2 mM L-glutamine, 100 U/ml penicillin, and 100 µg/ml streptomycin (Invitrogen, Carlsbad, Calif.). MiaPaCa-2 (CRL-1420) is an adherent epithelial human pancreatic cancer cell line with a doubling time of approximately 40 h (Yunis et al., 1977). Panc-1 (CRL-1469) is an undifferentiated human pancreatic epithelial cell line with a doubling time of approximately 52 h (Lieber et al., 1975). The BxPC3 cell line DPC-4(−/−) and its isogenic restored wild-type DPC-4(+/+) cell line were developed and cultured as described previously (Wang et al., 2006). In brief, a DPC-4-expressing construct (pMSCVneoDPC-4) was created by amplifying full-length cDNA of DPC-4 using reverse transcriptase-PCR and subcloning into the multiple cloning site of a retroviral vector (pMSCVneo). The DPC-4-expressing construct was cotransfected into the BxPC3 DPC-4(−/−) cells using a packaging cell line, resulting in a cell line that constitutively expresses DPC-4. The expression of DPC-4 was confirmed by Western blotting (Wang et al., 2006).
(§1) Cytotoxicity Assays. Cytotoxicity assays in the mechanism of action studies were performed according to Mosmann (1983), wherein the activity of mitochondrial reductases were measured using 3-(4,5-dimethylthiozol-3-yl)-2,5-diphenyltetrozolium bromide dye. In brief, cells were seeded in 96-well plates and incubated for various times at 37° C. Inhibition of cell growth was measured by adding 3-(4,5-dimethylthiozol-3-yl)-2,5-diphenyltetrozolium bromide dye, and after an additional 4 h of incubation at 37° C., the 96-well plates were centrifuged, and the culture supernatant was removed. DMSO was added to each well to solubilize the formazan crystals, and the optical density was read at 540 nm on a Quant Spectrophotometer (BioTek Instruments, Winooski, Vt.). Cell growth inhibition data are expressed as percentage of survival compared with untreated cells. The IC50 is defined as the drug concentration required to produce 50% growth inhibition. Results are mean S.E.M. (n 3).
Mean±S.E.M., n=3. […] Mean±S.E.M., n=3. […] Mean tumor burden is shown.

Data set [2] has as its target PIM-1 (Homo sapiens, UniProt P11309). Nature of the data set: Initial kinase screening (Amphora), PIM-1. Format: biochemical. The note with it: 10 μM compound. Set-up: assay run by Amphora Discovery Corporation (Durham, N.C.). As to the method: (§2) Kinase Screening. Initial kinase screening was performed by Amphora Discovery Corporation (Durham, N.C.).
Data set [3] has as its system DU145. Nature of the data set: IC50 in tumor cell lines (DU145). Format: cell-based. The note with it: Table 1; prostate tumor cell line DU145. As for the experimental part:
as §1

In data set [4] the test system is A549. Nature of the data set: IC50 in tumor cell lines (A549). Format: cell-based. To be noted: Table 1; lung tumor cell line A549. As for the experimental part: as §1
For data set [5], the system named is H460. Nature of the data set: IC50 in tumor cell lines (H460). Format: cell-based. To be noted: Table 1; lung tumor cell line H460. As to the method: as §1
Data set [6] deals with PC3. Nature of the data set: IC50 in tumor cell lines (PC3). Format: cell-based. The note with it: Table 1; prostate tumor cell line PC3. As to the method:
as §1

The target in data set [7] is TrkB (Homo sapiens, UniProt Q16620). In words: Initial kinase screening (Amphora), TrkB. Further details: assay run by Amphora Discovery Corporation (Durham, N.C.). Format: biochemical. To be noted: 10 μM compound. As to the method:
as §2

For data set [8], the target named is T1, PDGFRα (Homo sapiens, UniProt P16234).
T1 construct: assay run by Amphora Discovery Corporation (Durham, N.C.)
T1 sequence (P16234 24-1089, species assumed): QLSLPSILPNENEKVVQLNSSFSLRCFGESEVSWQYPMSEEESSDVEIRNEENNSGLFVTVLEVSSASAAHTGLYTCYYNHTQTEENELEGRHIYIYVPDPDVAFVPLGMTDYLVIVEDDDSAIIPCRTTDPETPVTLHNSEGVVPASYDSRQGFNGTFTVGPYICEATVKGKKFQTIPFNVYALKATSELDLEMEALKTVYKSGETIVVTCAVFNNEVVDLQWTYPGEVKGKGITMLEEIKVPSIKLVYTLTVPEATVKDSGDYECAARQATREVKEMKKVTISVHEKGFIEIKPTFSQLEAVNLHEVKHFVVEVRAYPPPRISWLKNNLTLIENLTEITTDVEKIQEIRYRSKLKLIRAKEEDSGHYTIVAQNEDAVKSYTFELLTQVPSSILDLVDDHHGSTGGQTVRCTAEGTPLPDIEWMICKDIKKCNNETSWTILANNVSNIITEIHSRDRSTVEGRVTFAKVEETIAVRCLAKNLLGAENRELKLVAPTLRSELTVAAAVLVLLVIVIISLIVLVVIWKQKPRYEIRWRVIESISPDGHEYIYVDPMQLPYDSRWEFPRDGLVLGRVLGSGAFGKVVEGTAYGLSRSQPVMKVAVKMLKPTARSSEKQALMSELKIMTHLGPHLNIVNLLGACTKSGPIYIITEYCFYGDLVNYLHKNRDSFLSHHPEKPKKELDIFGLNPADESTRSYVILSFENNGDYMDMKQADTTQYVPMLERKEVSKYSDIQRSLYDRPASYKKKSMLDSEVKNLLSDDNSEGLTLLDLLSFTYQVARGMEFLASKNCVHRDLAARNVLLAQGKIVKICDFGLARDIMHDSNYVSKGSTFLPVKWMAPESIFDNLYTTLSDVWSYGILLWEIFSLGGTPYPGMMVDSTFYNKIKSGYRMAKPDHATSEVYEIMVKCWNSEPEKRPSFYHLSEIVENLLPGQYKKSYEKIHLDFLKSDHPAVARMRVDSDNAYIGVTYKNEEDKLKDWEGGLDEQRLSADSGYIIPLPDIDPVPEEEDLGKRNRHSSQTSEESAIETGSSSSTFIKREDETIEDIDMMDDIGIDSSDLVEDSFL
In words: Initial kinase screening (Amphora), PDGFRα. Format: biochemical. To be noted: 10 μM compound. As for the experimental part:
as §2

In data set [9] the target is T2, PDGFRβ (Homo sapiens, UniProt P09619).
T2 construct: assay run by Amphora Discovery Corporation (Durham, N.C.)
T2 sequence (P09619 33-1106, species assumed): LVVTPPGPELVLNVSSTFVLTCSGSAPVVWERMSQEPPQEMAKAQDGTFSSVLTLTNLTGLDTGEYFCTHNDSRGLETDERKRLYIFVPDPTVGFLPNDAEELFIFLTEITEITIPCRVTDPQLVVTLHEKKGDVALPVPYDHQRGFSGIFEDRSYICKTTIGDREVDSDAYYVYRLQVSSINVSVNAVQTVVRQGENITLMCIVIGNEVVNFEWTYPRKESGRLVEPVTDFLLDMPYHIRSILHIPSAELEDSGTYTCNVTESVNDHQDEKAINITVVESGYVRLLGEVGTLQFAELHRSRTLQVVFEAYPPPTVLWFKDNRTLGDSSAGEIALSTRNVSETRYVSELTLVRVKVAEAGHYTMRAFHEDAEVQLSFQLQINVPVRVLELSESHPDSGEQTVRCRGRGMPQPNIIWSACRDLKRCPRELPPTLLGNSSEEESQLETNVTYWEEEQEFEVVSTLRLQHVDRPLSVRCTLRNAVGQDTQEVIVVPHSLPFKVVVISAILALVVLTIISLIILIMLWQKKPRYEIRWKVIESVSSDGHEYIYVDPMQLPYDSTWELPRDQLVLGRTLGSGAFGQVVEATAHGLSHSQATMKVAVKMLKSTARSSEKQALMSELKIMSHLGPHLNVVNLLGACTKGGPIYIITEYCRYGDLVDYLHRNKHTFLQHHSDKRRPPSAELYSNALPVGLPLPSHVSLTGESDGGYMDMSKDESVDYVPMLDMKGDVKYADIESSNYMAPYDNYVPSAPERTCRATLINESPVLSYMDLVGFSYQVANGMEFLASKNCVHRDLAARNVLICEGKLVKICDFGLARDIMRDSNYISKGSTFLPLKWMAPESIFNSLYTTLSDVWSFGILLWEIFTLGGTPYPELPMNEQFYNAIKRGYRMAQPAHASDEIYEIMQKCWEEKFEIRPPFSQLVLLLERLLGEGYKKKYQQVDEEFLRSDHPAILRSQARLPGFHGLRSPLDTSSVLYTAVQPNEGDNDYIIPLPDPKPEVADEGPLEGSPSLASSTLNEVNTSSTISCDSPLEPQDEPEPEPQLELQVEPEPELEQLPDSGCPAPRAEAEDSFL
In words: Initial kinase screening (Amphora), PDGFRβ. Format: biochemical. To be noted: 10 μM compound. As to the method: as §2

A short description of data set [10]: Solubility (statement). Format: physicochemical.
The target of data set [11] is T3, CDK2/cyclin A (Homo sapiens, UniProt P24941).
T3 construct: assay run by Amphora Discovery Corporation (Durham, N.C.)
Nature of the data set: Initial kinase screening (Amphora), CDK2/cyclin A. Format: biochemical. To be noted: 10 μM compound. As for the experimental part: as §2

Data set [12] deals with 48 protein kinases. In words: Initial kinase screening (Amphora), panel of 48 protein kinases. Format: biochemical. The note with it: 10 μM compound. As to the method: as §2

SMILES strings stand for the structures. Values joined by “and” are separate entries in the source; they are usually repeats but may differ in a detail not shown here. Equal values may be shown once.

Chain of TrkB (Q16620 32-822): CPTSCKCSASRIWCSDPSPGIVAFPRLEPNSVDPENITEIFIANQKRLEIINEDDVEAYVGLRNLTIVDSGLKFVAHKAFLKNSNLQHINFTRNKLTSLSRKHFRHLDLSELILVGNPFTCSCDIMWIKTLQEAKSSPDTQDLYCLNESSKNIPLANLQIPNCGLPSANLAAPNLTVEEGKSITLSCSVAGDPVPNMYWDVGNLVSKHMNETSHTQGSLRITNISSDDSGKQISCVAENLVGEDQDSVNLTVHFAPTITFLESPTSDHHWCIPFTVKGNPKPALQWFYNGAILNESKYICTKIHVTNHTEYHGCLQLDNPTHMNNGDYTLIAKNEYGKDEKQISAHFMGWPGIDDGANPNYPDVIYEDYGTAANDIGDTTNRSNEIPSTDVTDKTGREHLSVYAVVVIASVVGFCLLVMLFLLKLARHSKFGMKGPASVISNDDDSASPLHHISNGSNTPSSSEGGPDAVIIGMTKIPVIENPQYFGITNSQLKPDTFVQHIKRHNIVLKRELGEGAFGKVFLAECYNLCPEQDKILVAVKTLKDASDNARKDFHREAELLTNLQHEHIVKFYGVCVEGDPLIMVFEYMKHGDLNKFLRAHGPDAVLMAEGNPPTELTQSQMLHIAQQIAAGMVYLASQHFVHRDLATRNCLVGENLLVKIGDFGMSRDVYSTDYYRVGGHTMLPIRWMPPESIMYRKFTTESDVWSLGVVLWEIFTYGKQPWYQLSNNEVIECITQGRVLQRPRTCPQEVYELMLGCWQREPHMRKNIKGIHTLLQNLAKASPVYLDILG
Chain of PIM-1 (P11309 whole entry): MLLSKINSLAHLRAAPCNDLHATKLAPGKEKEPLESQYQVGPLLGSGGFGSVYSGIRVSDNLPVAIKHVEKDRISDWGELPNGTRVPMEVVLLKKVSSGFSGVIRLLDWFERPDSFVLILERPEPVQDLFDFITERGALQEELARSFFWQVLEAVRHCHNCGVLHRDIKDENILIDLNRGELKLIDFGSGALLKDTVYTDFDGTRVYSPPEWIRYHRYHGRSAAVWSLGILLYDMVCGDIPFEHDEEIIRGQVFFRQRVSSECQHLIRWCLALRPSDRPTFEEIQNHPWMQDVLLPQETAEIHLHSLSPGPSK

For `COc1ccc(-c2cnc(-c3ccncc3-c3ccccc3)o2)cc1` [DPC043], the “potency against BxPC3 cell lines (in words)” value (“potency” for short) in [1] is “retained potency”. Also, the “inhibition of PIM-1” value in data set [2] is given as approximately 50%. In addition, the 50% inhibitory concentration (IC50) (in general, the concentration needed to halve the response being measured) in [3] stood at 20 nM; in data set [4], 33 nM; in data set [5], 50 nM; in data set [6] it was 9.9 nM. Besides, in data set [7], the “inhibition of TrkB” value was approximately 50%.

Turning to `COc1ccc(-c2cnc(-c3ccccc3-c3ccccc3)o2)cc1` [DPC-026], the “potency” value in [1] was “retained high potency”. In data set [8], the “inhibition of PDGFRα” value is given as 59%. For the same compound, in data set [9], the “inhibition of PDGFRβ” value came to 43%.

For the compound `COc1ccc(-c2cnc(-c3cccc4c3-c3ccccc3C4=O)o2)cc1` [UA-62784, reference compound], in data set [1], the “potency” value is listed as “high potency”. Further, in data set [1] (ratio of the IC50 in BxPC3 DPC-4(+/+) to BxPC3 DPC-4(−/−) cells), the selectivity index is 2 and 1.9. The “solubility (in words)” value in data set [10] is on record as “lack of solubility”. In [11], the “inhibition of CDK2/cyclin A” value is given as 57%. The “inhibition of any protein kinases (panel, in words)” value in data set [12] is reported as “no significant (>50%) inhibition”.
